From patent publication US9777020B2, “Furo-3-carboxamide derivatives and methods of use” (AbbVie Inc., priority 2014, dated 2017)
pIC50: −log10 of the molar value. Marks after values point to notes of the source that are not given here.

Experiments:
[1] = test system: MIA-induced osteoarthritis pain; assay: Rat model of mono-iodoacetic acid (MIA) induced osteoarthritis pain, hind limb grip force; type: in vivo; conditions: mean percent effect
Method: Members of the TrkA inhibitors described above were tested and found effective in reducing osteoarthritis pain. The compounds tested were assessed in an in vivo model well known to those skilled in the art, the rat model of mono-iodoacetic acid induced osteoarthritis pain. A general review of various models of pain can be found in Joshi and Honore, Expert Opinion in Drug Discovery (2004) 1, pp. 323-334, and in the book ‘Drug Discovery and Evaluation, 2nd edition (H. Gerhard Vogel, editor; Springer-Verlag, New York, 2002; pp. 702-706). Pain behavior was assessed by measurement of hind limb grip force (GF) in adult osteoarthritic rats. Male Sprague Dawley rats, generally weighing 125-150 g, were injected in the unilateral knee join with a single intra-articular injection of sodium monoiodoacetate (MIA). Rats were tested at 21-28 days following MIA injection. A behavioral measure of activity-induced pain was carried out. Measurements of the peak hind limb grip force were conducted by recording the maximum compressive force (CFmax), in grams of force, exerted on a hind limb strain gauge setup, in a commercially available grip force measurement system (Columbus Instruments, Columbus, Ohio). During testing, each rat was gently restrained by grasping it around its rib cage and then allowed to grasp the wire mesh frame attached to the strain gauge. The experimenter then moved the animal in a rostral-to-caudal direction until the grip was broken. Each rat was sequentially tested twice at an approximately 2-3 minute interval to obtain a raw mean grip force (CFmax). This raw mean grip force data was in turn converted to a maximum hindlimb cumulative compressive force (CFmax), as the grams of force/kg of body weight, for each animal. For evaluating the compound effects, the hind limb grip force testing in the MIA-treated rats was conducted generally 30-60 minutes after dosing with the test compound. A group of age-matched naïve (not injected with MIA) animals was added as a comparator to the drug-dosed groups. The vehicle control response for each group of MIA-treated animals was defined as the 0% response (0% effect), whereas the naïve control group was defined as the normal response and as 100% effect. The % effect=(Treatment CFmax−Vehicle CFmax)[…]]×100). Higher % effect numbers indicate increased relief from the pain in the model, with 100% indicating a return to the level of response seen in normal (non-osteoarthritic) animals. All experiments evaluating drug effects in this model were conducted in a randomized blinded fashion. Male Sprague Dawley rats (generally 250-300 g body weight at the time of testing) obtained from Charles River Laboratories (Wilmington, Mass.) were used for all experiments, unless indicated otherwise. The animals were housed in Association for Assessment and Accreditation of Laboratory Animal Care (AAALAC) approved facilities at AbbVie in a temperature-regulated environment under a controlled 12-hour light-dark cycle, with lights on at 6:00 a.m. Food and water were available ad libitum at all times except during testing. All testing was done following procedures outlined in protocols approved by AbbVie Institutional Animal Care and Use Committee.

TrkA = TrkA (Homo sapiens (Human), UniProt P04629); assay: TrkA kinase HTRF enzyme inhibition assay; type: biochemical; conditions: TrkA pre-incubated with 200 μM ATP
TrkA, sequence (P04629 33-796): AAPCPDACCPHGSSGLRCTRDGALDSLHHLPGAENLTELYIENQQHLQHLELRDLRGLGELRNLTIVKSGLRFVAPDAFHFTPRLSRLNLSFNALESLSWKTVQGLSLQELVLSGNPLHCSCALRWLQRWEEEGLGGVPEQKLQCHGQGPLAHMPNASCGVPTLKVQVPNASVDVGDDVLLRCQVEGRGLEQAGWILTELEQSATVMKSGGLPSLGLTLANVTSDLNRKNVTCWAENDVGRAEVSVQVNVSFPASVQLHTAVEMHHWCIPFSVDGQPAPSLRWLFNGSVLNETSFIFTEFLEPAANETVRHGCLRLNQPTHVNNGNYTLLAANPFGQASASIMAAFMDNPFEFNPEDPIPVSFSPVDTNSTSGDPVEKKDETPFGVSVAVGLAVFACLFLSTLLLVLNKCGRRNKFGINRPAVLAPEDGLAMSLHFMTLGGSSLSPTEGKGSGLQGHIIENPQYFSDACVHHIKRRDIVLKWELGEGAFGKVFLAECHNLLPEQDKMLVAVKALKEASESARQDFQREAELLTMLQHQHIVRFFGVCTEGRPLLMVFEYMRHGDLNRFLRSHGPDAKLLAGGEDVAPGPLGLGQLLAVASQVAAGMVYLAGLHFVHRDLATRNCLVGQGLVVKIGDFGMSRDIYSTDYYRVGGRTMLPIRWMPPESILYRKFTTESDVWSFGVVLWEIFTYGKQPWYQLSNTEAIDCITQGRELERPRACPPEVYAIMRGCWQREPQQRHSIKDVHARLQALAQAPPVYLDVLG
How it was run: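 HTRF ratio read-out of biotin-peptide (125 nM) phosphorylation, 1 h reaction after TrkA (2-10 nM) auto-activation with ATP (200 μM) for 20 min and 10 min compound pre-incubation in 50 mM HEPES pH 7.4 with MgCl2/MnCl2. Percent inhibition from initial rates in duplicate, fitted to single-site equation for IC50.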

[2] = 30 mg/kg p.o., tested 30-60 minutes postdosing

Structure (SMILES) | pIC50 (TrkA) | further results
CCOc1nc(N2CCN(C(C)=O)CC2)ccc1NC(=O)c1coc2c1C(=O)N(CCO)CC2 [Example 9, N-[6-(4-acetylpiperazin-1-yl)-2-ethoxypyridin-3-yl]-5-(2-hydroxyethyl)-4-oxo-4,5,6,7-tetrahydrofuro[3,2-c]pyridine-3-carboxamide] | – | % Effect (hind limb grip force, MIA model) [1, 2]: 69% **
COc1cc(N2CCN(C(C)=O)CC2)ccc1NC(=O)c1coc2c1C(=O)NC(C)(C)C2 [Example 126, N-[4-(4-acetylpiperazin-1-yl)-2-methoxyphenyl]-6,6-dimethyl-4-oxo-4,5,6,7-tetrahydrofuro[3,2-c]pyridine-3-carboxamide] | 7.60 | % Effect (hind limb grip force, MIA model) ([1]; 100 mg/kg p.o., tested 3 hours post dose): 47% **
CCOc1nc(N2CCN(C(C)=O)CC2)ccc1NC(=O)c1coc2c1C(=O)NC(C)(C)C2 [Example 128, N-[6-(4-acetylpiperazin-1-yl)-2-ethoxypyridin-3-yl]-6,6-dimethyl-4-oxo-4,5,6,7-tetrahydrofuro[3,2-c]pyridine-3-carboxamide] | 8.27 | % Effect (hind limb grip force, MIA model) ([1]; 30 mg/kg p.o., tested 3 hours post dose): 55% ***
Cn1cc2cc(NC(=O)c3coc4c3C(=O)CC(C)(C)C4)ccc2n1 [Example 147, 6,6-dimethyl-N-(2-methyl-2H-indazol-5-yl)-4-oxo-4,5,6,7-tetrahydro-1-benzofuran-3-carboxamide] | 7.79 | % Effect (hind limb grip force, MIA model) ([1]; 300 mg/kg p.o., tested 3 hours post dose): 69% ***
COc1cc(N2CCN(C(C)=O)CC2)ccc1NC(=O)c1coc2c1C(=O)C1(COC1)OC2 [Example 172, N-[4-(4-acetylpiperazin-1-yl)-2-methoxyphenyl]-4-oxo-4,7-dihydrospiro[furo[2,3-c]pyran-5,3′-oxetane]-3-carboxamide] | 7.22 | –
CCOc1nc(N2CCN(C(C)=O)CC2)ccc1NC(=O)c1coc2c1C(=O)N(C)C(C)(C)C2 [Example 173, N-[6-(4-acetylpiperazin-1-yl)-2-ethoxypyridin-3-yl]-5,6,6-trimethyl-4-oxo-4,5,6,7-tetrahydrofuro[3,2-c]pyridine-3-carboxamide] | 8.46 | –
CCOc1nc(N2CCN(C(C)=O)CC2)ccc1NC(=O)c1coc2c1C(=O)N(CCO)C(C)(C)C2 [Example 174, N-[6-(4-acetylpiperazin-1-yl)-2-ethoxypyridin-3-yl]-5-(2-hydroxyethyl)-6,6-dimethyl-4-oxo-4,5,6,7-tetrahydrofuro[3,2-c]pyridine-3-carboxamide] | 8.28 | –
CCOc1nc(N2CCN(C(C)=O)CC2)ccc1NC(=O)c1coc2c1C(=O)N(CCOC)C(C)(C)C2 [Example 175, N-[6-(4-acetylpiperazin-1-yl)-2-ethoxypyridin-3-yl]-5-(2-methoxyethyl)-6,6-dimethyl-4-oxo-4,5,6,7-tetrahydrofuro[3,2-c]pyridine-3-carboxamide] | 8.33 | –
CC(=O)N1CCN(c2ccc(NC(=O)c3coc4c3C(=O)NC(C)(C)C4)c(OCC(F)(F)F)n2)CC1 [Example 178, N-[6-(4-acetylpiperazin-1-yl)-2-(2,2,2-trifluoroethoxyl)pyridin-3-yl]-6,6-dimethyl-4-oxo-4,5,6,7-tetrahydrofuro[3,2-c]pyridine-3-carboxamide] | 8.28 | –
CC(=O)N1CCN(c2ccc(NC(=O)c3coc4c3C(=O)NC(C)(C)C4)c(O[C@H]3CCOC3)n2)CC1 [Example 181, N-{6-(4-acetylpiperazin-1-yl)-2-[(3S)-tetrahydrofuran-3-yloxy]pyridin-3-yl}-6,6-dimethyl-4-oxo-4,5,6,7-tetrahydrofuro[3,2-c]pyridine-3-carboxamide] | 7.99 | –
CC(=O)N1CCN(c2ccc(NC(=O)c3coc4c3C(=O)NC(C)(C)C4)c(OC3C[S+]([O-])C3)n2)CC1 (centres unmarked) [Example 183, N-{6-(4-acetylpiperazin-1-yl)-2-[(1-oxidothietan-3-yl)oxy]pyridin-3-yl}-6,6-dimethyl-4-oxo-4,5,6,7-tetrahydrofuro[3,2-c]pyridine-3-carboxamide] | 8.32 | –
CCOc1nc(C2CCN(C(C)=O)CC2)ccc1NC(=O)c1coc2c1C(=O)NC(C)(C)C2 [Example 184, N-[6-(1-acetylpiperidin-4-yl)-2-ethoxypyridin-3-yl]-6,6-dimethyl-4-oxo-4,5,6,7-tetrahydrofuro[3,2-c]pyridine-3-carboxamide] | 8.46 | –
CCOc1nc(N2CCN(C(C)=O)CC2)ccc1NC(=O)c1coc2c1C(=O)C(c1cc(F)ccc1F)CC2 (centres unmarked) [Example 185, N-[6-(4-acetylpiperazin-1-yl)-2-ethoxypyridin-3-yl]-5-(2,5-difluorophenyl)-4-oxo-4,5,6,7-tetrahydro-1-benzofuran-3-carboxamide] | 8.18 | –

The remaining compounds from weak to strong by pIC50 (TrkA), led by results:

pIC50 (TrkA) | Structure (SMILES) | further results
7.25 | COc1cc(N2CCN(C(C)=O)CC2)ccc1NC(=O)c1coc2c1C(=O)C1(CCNCC1)OC2 [Example 170, N-[4-(4-acetylpiperazin-1-yl)-2-methoxyphenyl]-4-oxo-4,7-dihydrospiro[furo[2,3-c]pyran-5,4′-piperidine]-3-carboxamide] | –
7.74 | COc1nc(N2CCN(C(=O)N3CCOCC3)CC2)ccc1NC(=O)c1coc2c1C(=O)NC(C)(C)C2 [Example 121, N-{2-methoxy-6-[4-(morpholin-4-ylcarbonyl)piperazin-1-yl]pyridin-3-yl}-6,6-dimethyl-4-oxo-4,5,6,7-tetrahydrofuro[3,2-c]pyridine-3-carboxamide] | % Effect (hind limb grip force, MIA model) [1, 2]: 74% ***
7.75 | COCCOc1nc(N2CCN(C=O)CC2)ccc1NC(=O)c1coc2c1C(=O)NC(C)(C)C2 [Example 182, N-[6-(4-formylpiperazin-1-yl)-2-(2-methoxyethoxyl)pyridin-3-yl]-6,6-dimethyl-4-oxo-4,5,6,7-tetrahydrofuro[3,2-c]pyridine-3-carboxamide] | –
7.91 | COCCOc1nc(N2CCN(C(C)=O)CC2)ccc1NC(=O)c1coc2c1C(=O)NC(C)(C)C2 [Example 177, N-[6-(4-acetylpiperazin-1-yl)-2-(2-methoxyethoxyl)pyridin-3-yl]-6,6-dimethyl-4-oxo-4,5,6,7-tetrahydrofuro[3,2-c]pyridine-3-carboxamide] | % Effect (hind limb grip force, MIA model) [1, 2]: 68% ***
7.96 | CC(=O)N1CCN(c2ccc(NC(=O)c3coc4c3C(=O)NC(C)(C)C4)c(OC3CCOCC3)n2)CC1 [Example 180, N-[6-(4-acetylpiperazin-1-yl)-2-(tetrahydro-2H-pyran-4-yloxy)pyridin-3-yl]-6,6-dimethyl-4-oxo-4,5,6,7-tetrahydrofuro[3,2-c]pyridine-3-carboxamide] | –
8.31 | CC(=O)N1CCN(c2ccc(NC(=O)c3coc4c3C(=O)NC(C)(C)C4)c(OC3COC3)n2)CC1 [Example 179, N-[6-(4-acetylpiperazin-1-yl)-2-(oxetan-3-yloxy)pyridin-3-yl]-6,6-dimethyl-4-oxo-4,5,6,7-tetrahydrofuro[3,2-c]pyridine-3-carboxamide] | –
8.54 | COc1nc(N2CCN(C(C)=O)CC2)ccc1NC(=O)c1coc2c1C(=O)C(C)(C)OC2 [Example 171, N-[6-(4-acetylpiperazin-1-yl)-2-methoxypyridin-3-yl]-5,5-dimethyl-4-oxo-4,7-dihydro-5H-furo[2,3-c]pyran-3-carboxamide] | –
8.68 | CCOc1nc(N2CCN(C(C)=O)CC2)ccc1NC(=O)c1coc2c1C(=O)N(CCOCCO)C(C)(C)C2 [Example 176, N-[6-(4-acetylpiperazin-1-yl)-2-ethoxypyridin-3-yl]-5-[2-(2-hydroxyethoxyl)ethyl]-6,6-dimethyl-4-oxo-4,5,6,7-tetrahydrofuro[3,2-c]pyridine-3-carboxamide] | –
